Experimental data as given in patent US5041636A, “Urea derivatives” (Wako Pure Chemical Industries, Ltd., priority 1986, dated 1991).
Counter-ions that a name gives are not always drawn.

How the values were obtained:
Type in all cases: physicochemical
[1] = Stability after color development (Table 1); set-up: key: A: stable; B: slightly unstable
Method: (§1) Various properties such as the stability of leuco dye solution, the stability after color developed, the maximum absorption wavelength (λmax), the sensitivity (ε) and the solubility in water of typical 14 examples of the urea derivatives of the formula (I) are shown in Table 1.
(§2) In Table 1, "A" means stable and "B" means slightly unstable in the evaluation of the stability of the leuco dye solution and the stability after color development. The solubility in water is evaluated as .circleincircle. highly soluble, soluble, and X hardly soluble.

[2] = Stability of leuco dye solution (Table 1); set-up: key: A: stable; B: slightly unstable
Method: as §1, §2

[3] = Maximum absorption wavelength (λmax) and sensitivity (ε) (Table 1); settings: at color development
Excerpt: as §1

[4] = Solubility in water (Table 1)
Method: as §1, §2

SMILES	Stability after color developed [1]	Stability of leuco dye soln. [2]	λmax [3] [nm]	Solubility in water [4]
Cc1ccc(S(=O)(=O)NC(=O)N(c2ccc(N(C)CO)cc2)c2ccc(N3CCCCC3)cc2)cc1 [(5)]	B	A	730	–
CN(C)c1ccc(N(C(=O)NCCC2CCOCC2)c2ccc(N(C)CO)cc2)cc1 [(6)]	B	A	730	–
CCCN(CCC)c1ccc2c(c1)Oc1cc(N(CCC)CCC)ccc1N2C(=O)NCC(=O)O [(11)]	B	A	666	.circleincircle
CCCN(CCC)c1ccc2c(c1)Sc1cc(N(CCC)CCC)ccc1N2C(=O)NCC(=O)O [(12)]	B	A	666	.circleincircle
CN(C)c1ccc2c(c1)Oc1cc(N(C)CC(=O)O)ccc1N2C(=O)NCC(=O)O [(13)]	B	B	666	.circleincircle
CN(C)c1ccc2c(c1)Sc1cc(N(C)CC(=O)O)ccc1N2C(=O)NCC(=O)O [(14)]	B	B	666	.circleincircle
CNC(=O)N(c1ccc(N(C)C)cc1)c1ccc(N(C)C)cc1 [(15), reference compound]	B	A	730	–
CCCCNC(=O)N(c1ccc(N(C)C)cc1)c1ccc(N(C)C)cc1 [(16), reference compound]	B	A	730	–
CNC(=O)N1c2ccc(N(C)C)cc2Sc2cc(N(C)C)ccc21 [(17), reference compound]	B	B	666	–
CN(C)c1ccc(N(C(=O)NCC(=O)O)c2ccc(N(C)C)cc2)cc1 [Compound No. (1), sodium salt of N,N-bis(4-dimethylaminophenyl)-N'-carboxymethylurea]	B	A	730	.circleincircle
CN(C)c1ccc(N(C(=O)Nc2ccc(S(=O)(=O)O)cc2)c2ccc(N(C)C)cc2)cc1 [Compound No. (2), sodium salt of N, N-bis(4-dimethylaminophenyl)-N'-(4-sulfophenyl)urea]	B	A	730	.circleincircle
CCN(CC)c1ccc(N(C(=O)NS(=O)(=O)c2ccc(C)cc2)c2ccc(N(C)C)cc2C)c(C)c1 [Compound No. (7), N-(4-dimethylamino-2-methylphenyl)-N-(4'-diethylamino-2'-methylphenyl)-N'-(4-methylphenylsulfonyl)urea]	A	A	740	–
CN(C)c1ccc2c(c1)Sc1cc(N(C)C)ccc1N2C(=O)NCC(=O)O [Compound No. (9), sodium salt of 10-(carboxymethylaminocarbonyl)-3,7-bis(dimethylamino)phenothiazine]	B	B	666	.circleincircle
CN(C)c1ccc2c(c1)Oc1cc(N(C)C)ccc1N2C(=O)NCC(=O)O [Compound No. (10), sodium salt of 10-(carboxymethylaminocarbonyl)-3,7-bis(dimethylamino)phenoxazine]	B	B	666	.circleincircle
